Measured values from ChEMBL document CHEMBL1153040, “HIF-1alpha peptide derivatives with modifications at the hydroxyproline residue as activators of HIF-1alpha” (Bioorg Med Chem Lett, 2009).
Active and inactive are the calls of the source. The calls are words filed in the database; no cut-off is given here.

What follows are molecules tested against Hypoxia-inducible factor 1-alpha (Homo sapiens, UniProt Q16665) (assay: Inhibition of interaction between fluorescein-labeled proline hydroxylated human HIFalpha (556 to 575) and human VHL-human elongin B-human elongin C complex expressed in Escherichia coli by fluorescence polarization assay).
Sequence of Hypoxia-inducible factor 1-alpha (Q16665 whole entry): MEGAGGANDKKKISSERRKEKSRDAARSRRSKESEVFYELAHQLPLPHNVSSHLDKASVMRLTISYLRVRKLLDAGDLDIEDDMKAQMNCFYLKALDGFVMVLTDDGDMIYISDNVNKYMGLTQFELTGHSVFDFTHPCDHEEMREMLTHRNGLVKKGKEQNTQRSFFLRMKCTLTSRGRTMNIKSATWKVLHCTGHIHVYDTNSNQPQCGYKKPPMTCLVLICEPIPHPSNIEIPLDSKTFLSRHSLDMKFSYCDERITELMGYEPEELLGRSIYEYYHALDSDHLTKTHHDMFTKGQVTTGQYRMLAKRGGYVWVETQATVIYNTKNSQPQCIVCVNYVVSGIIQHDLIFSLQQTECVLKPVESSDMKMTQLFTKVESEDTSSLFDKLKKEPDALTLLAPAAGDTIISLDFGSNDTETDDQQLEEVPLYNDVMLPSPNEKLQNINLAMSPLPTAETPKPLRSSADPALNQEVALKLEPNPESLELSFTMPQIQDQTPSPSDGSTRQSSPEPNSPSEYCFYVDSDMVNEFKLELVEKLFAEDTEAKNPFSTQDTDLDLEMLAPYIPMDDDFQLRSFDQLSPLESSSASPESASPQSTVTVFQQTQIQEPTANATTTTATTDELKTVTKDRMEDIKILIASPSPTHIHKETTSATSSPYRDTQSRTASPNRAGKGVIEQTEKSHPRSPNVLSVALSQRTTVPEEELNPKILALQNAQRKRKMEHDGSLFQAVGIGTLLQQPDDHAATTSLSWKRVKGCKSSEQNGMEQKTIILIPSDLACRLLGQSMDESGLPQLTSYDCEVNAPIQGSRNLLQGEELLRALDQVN

| Structure (SMILES) | Ki [µM] |
| --- | --- |
| CC[C@@H](C)[C@H](NC(=O)[C@H](Cc1ccc(O)cc1)NC(=O)[C@@H]1CCCN1C(=O)[C@H](C)NC(=O)[C@H](CC(C)C)NC(=O)[C@H](C)NC(=O)[C@H](CCC(=O)O)NC(=O)[C@H](CC(C)C)NC(=O)[C@H](CC(=O)O)NC(=O)[C@H](CC(C)C)NC(=O)[C@@H](N)CC(=O)O)C(=O)N1CCC[C@H]1C(=O)N[C@@H](C)C(=O)N[C@@H](CC(=O)O)C(=O)N[C@@H](CC(=O)O)C(=O)N[C@@H](CC(=O)O)C(=O)N[C@@H](Cc1ccccc1)C(=O)N[C@@H](CCC(N)=O)C(=O)N[C@@H](CC(C)C)C(=O)N[C@@H](CCCNC(=N)N)C(N)=O | > 500 |
| CC[C@@H](C)[C@H](NC(=O)[C@H](Cc1ccc(O)cc1)NC(=O)[C@H](CC(C)C)NC(=O)[C@H](C)NC(=O)[C@H](CC(C)C)NC(=O)[C@H](C)NC(=O)[C@H](CCC(=O)O)NC(=O)[C@H](CC(C)C)NC(=O)[C@H](CC(=O)O)NC(=O)[C@H](CC(C)C)NC(=O)[C@@H](N)CC(=O)O)C(=O)N1CCC[C@H]1C(=O)N[C@@H](C)C(=O)N[C@@H](CC(=O)O)C(=O)N[C@@H](CC(=O)O)C(=O)N[C@@H](CC(=O)O)C(=O)N[C@@H](Cc1ccccc1)C(=O)N[C@@H](CCC(N)=O)C(=O)N[C@@H](CC(C)C)C(=O)N[C@@H](CCCNC(=N)N)C(N)=O | 58 |
| CC[C@@H](C)[C@H](NC(=O)[C@H](Cc1ccc(O)cc1)NC(=O)[C@@H](NC(=O)[C@H](C)NC(=O)[C@H](CC(C)C)NC(=O)[C@H](C)NC(=O)[C@H](CCC(=O)O)NC(=O)[C@H](CC(C)C)NC(=O)[C@H](CC(=O)O)NC(=O)[C@H](CC(C)C)NC(=O)[C@@H](N)CC(=O)O)C(C)C)C(=O)N1CCC[C@H]1C(=O)N[C@@H](C)C(=O)N[C@@H](CC(=O)O)C(=O)N[C@@H](CC(=O)O)C(=O)N[C@@H](CC(=O)O)C(=O)N[C@@H](Cc1ccccc1)C(=O)N[C@@H](CCC(N)=O)C(=O)N[C@@H](CC(C)C)C(=O)N[C@@H](CCCNC(=N)N)C(N)=O | 16 |
| CC[C@@H](C)[C@H](NC(=O)[C@H](Cc1ccc(O)cc1)NC(=O)[C@@H](NC(=O)[C@H](C)NC(=O)[C@H](CC(C)C)NC(=O)[C@H](C)NC(=O)[C@H](CCC(=O)O)NC(=O)[C@H](CC(C)C)NC(=O)[C@H](CC(=O)O)NC(=O)[C@H](CC(C)C)NC(=O)[C@@H](N)CC(=O)O)[C@H](C)O)C(=O)N1CCC[C@H]1C(=O)N[C@@H](C)C(=O)N[C@@H](CC(=O)O)C(=O)N[C@@H](CC(=O)O)C(=O)N[C@@H](CC(=O)O)C(=O)N[C@@H](Cc1ccccc1)C(=O)N[C@@H](CCC(N)=O)C(=O)N[C@@H](CC(C)C)C(=O)N[C@@H](CCCN=C(N)N)C(N)=O | 18 |
| CC[C@@H](C)[C@H](NC(=O)[C@H](Cc1ccc(O)cc1)NC(=O)[C@H](CC(=O)O)NC(=O)[C@H](C)NC(=O)[C@H](CC(C)C)NC(=O)[C@H](C)NC(=O)[C@H](CCC(=O)O)NC(=O)[C@H](CC(C)C)NC(=O)[C@H](CC(=O)O)NC(=O)[C@H](CC(C)C)NC(=O)[C@@H](N)CC(=O)O)C(=O)N1CCC[C@H]1C(=O)N[C@@H](C)C(=O)N[C@@H](CC(=O)O)C(=O)N[C@@H](CC(=O)O)C(=O)N[C@@H](CC(=O)O)C(=O)N[C@@H](Cc1ccccc1)C(=O)N[C@@H](CCC(N)=O)C(=O)N[C@@H](CC(C)C)C(=O)N[C@@H](CCCNC(=N)N)C(N)=O | 15 |
| CC[C@@H](C)[C@H](NC(=O)[C@H](Cc1ccc(O)cc1)NC(=O)[C@@H]1CCCCN1C(=O)[C@H](C)NC(=O)[C@H](CC(C)C)NC(=O)[C@H](C)NC(=O)[C@H](CCC(=O)O)NC(=O)[C@H](CC(C)C)NC(=O)[C@H](CC(=O)O)NC(=O)[C@H](CC(C)C)NC(=O)[C@@H](N)CC(=O)O)C(=O)N1CCC[C@H]1C(=O)N[C@@H](C)C(=O)N[C@@H](CC(=O)O)C(=O)N[C@@H](CC(=O)O)C(=O)N[C@@H](CC(=O)O)C(=O)N[C@@H](Cc1ccccc1)C(=O)N[C@@H](CCC(N)=O)C(=O)N[C@@H](CC(C)C)C(=O)N[C@@H](CCCN=C(N)N)C(N)=O | 77 |
| CC[C@@H](C)[C@H](NC(=O)[C@H](C)NC(=O)[C@H](CC(C)C)NC(=O)[C@H](C)NC(=O)[C@H](CCC(=O)O)NC(=O)[C@H](CC(C)C)NC(=O)[C@H](CC(=O)O)NC(=O)[C@H](CC(C)C)NC(=O)[C@@H](N)CC(=O)O)C(=O)N[C@@H](Cc1ccc(O)cc1)C(=O)N[C@H](C(=O)N1CCC[C@H]1C(=O)N[C@@H](C)C(=O)N[C@@H](CC(=O)O)C(=O)N[C@@H](CC(=O)O)C(=O)N[C@@H](CC(=O)O)C(=O)N[C@@H](Cc1ccccc1)C(=O)N[C@@H](CCC(N)=O)C(=O)N[C@@H](CC(C)C)C(=O)N[C@@H](CCCN=C(N)N)C(N)=O)[C@H](C)CC | 50 |
| CC[C@@H](C)[C@H](NC(=O)[C@H](Cc1ccc(O)cc1)NC(=O)[C@H](CCO)NC(=O)[C@H](C)NC(=O)[C@H](CC(C)C)NC(=O)[C@H](C)NC(=O)[C@H](CCC(=O)O)NC(=O)[C@H](CC(C)C)NC(=O)[C@H](CC(=O)O)NC(=O)[C@H](CC(C)C)NC(=O)[C@@H](N)CC(=O)O)C(=O)N1CCC[C@H]1C(=O)N[C@@H](C)C(=O)N[C@@H](CC(=O)O)C(=O)N[C@@H](CC(=O)O)C(=O)N[C@@H](CC(=O)O)C(=O)N[C@@H](Cc1ccccc1)C(=O)N[C@@H](CCC(N)=O)C(=O)N[C@@H](CC(C)C)C(=O)N[C@@H](CCCN=C(N)N)C(N)=O | 3.4 |
| CC[C@@H](C)[C@H](NC(=O)[C@H](Cc1ccc(O)cc1)NC(=O)[C@H](CC(N)=O)NC(=O)[C@H](C)NC(=O)[C@H](CC(C)C)NC(=O)[C@H](C)NC(=O)[C@H](CCC(=O)O)NC(=O)[C@H](CC(C)C)NC(=O)[C@H](CC(=O)O)NC(=O)[C@H](CC(C)C)NC(=O)[C@@H](N)CC(=O)O)C(=O)N1CCC[C@H]1C(=O)N[C@@H](C)C(=O)N[C@@H](CC(=O)O)C(=O)N[C@@H](CC(=O)O)C(=O)N[C@@H](CC(=O)O)C(=O)N[C@@H](Cc1ccccc1)C(=O)N[C@@H](CCC(N)=O)C(=O)N[C@@H](CC(C)C)C(=O)N[C@@H](CCCNC(=N)N)C(N)=O | 13 |
| CC[C@@H](C)[C@H](NC(=O)[C@H](Cc1ccc(O)cc1)NC(=O)[C@@H]1C[C@@H](O)CN1C(=O)[C@H](C)NC(=O)[C@H](CC(C)C)NC(=O)[C@H](C)NC(=O)[C@H](CCC(=O)O)NC(=O)[C@H](CC(C)C)NC(=O)[C@H](CC(=O)O)NC(=O)[C@H](CC(C)C)NC(=O)[C@@H](N)CC(=O)O)C(=O)N1CCC[C@H]1C(=O)N[C@@H](C)C(=O)N[C@@H](CC(=O)O)C(=O)N[C@@H](CC(=O)O)C(=O)N[C@@H](CC(=O)O)C(=O)N[C@@H](Cc1ccccc1)C(=O)N[C@@H](CCC(N)=O)C(=O)N[C@@H](CC(C)C)C(=O)N[C@@H](CCCN=C(N)N)C(N)=O | 3.7 |
| CC[C@@H](C)[C@H](NC(=O)[C@H](Cc1ccc(O)cc1)NC(=O)[C@H](CCN)NC(=O)[C@H](C)NC(=O)[C@H](CC(C)C)NC(=O)[C@H](C)NC(=O)[C@H](CCC(=O)O)NC(=O)[C@H](CC(C)C)NC(=O)[C@H](CC(=O)O)NC(=O)[C@H](CC(C)C)NC(=O)[C@@H](N)CC(=O)O)C(=O)N1CCC[C@H]1C(=O)N[C@@H](C)C(=O)N[C@@H](CC(=O)O)C(=O)N[C@@H](CC(=O)O)C(=O)N[C@@H](CC(=O)O)C(=O)N[C@@H](Cc1ccccc1)C(=O)N[C@@H](CCC(N)=O)C(=O)N[C@@H](CC(C)C)C(=O)N[C@@H](CCCN=C(N)N)C(N)=O | 109 |
| CC[C@@H](C)[C@H](NC(=O)[C@H](Cc1ccc(O)cc1)NC(=O)[C@@H]1C[C@@H](F)CN1C(=O)[C@H](C)NC(=O)[C@H](CC(C)C)NC(=O)[C@H](C)NC(=O)[C@H](CCC(=O)O)NC(=O)[C@H](CC(C)C)NC(=O)[C@H](CC(=O)O)NC(=O)[C@H](CC(C)C)NC(=O)[C@@H](N)CC(=O)O)C(=O)N1CCC[C@H]1C(=O)N[C@@H](C)C(=O)N[C@@H](CC(=O)O)C(=O)N[C@@H](CC(=O)O)C(=O)N[C@@H](CC(=O)O)C(=O)N[C@@H](Cc1ccccc1)C(=O)N[C@@H](CCC(N)=O)C(=O)N[C@@H](CC(C)C)C(=O)N[C@@H](CCCNC(=N)N)C(N)=O | 5.8 |

Each molecule was assayed on HeLa (assay: Induction of HIFalpha stabilization in human HeLa cells assessed as HIFalpha accumulation at 1 mM incubated under normoxic condition for 6 hrs by Western blot analysis).
Type: functional, cell-based

| Structure (SMILES) | Activity |
| --- | --- |
| CC[C@@H](C)[C@H](NC(=O)[C@H](Cc1ccc(O)cc1)NC(=O)[C@@H]1C[C@@H](O)CN1C(=O)[C@H](C)NC(=O)[C@H](CC(C)C)NC(=O)[C@H](C)NC(=O)[C@H](CCC(=O)O)NC(=O)[C@H](CC(C)C)NC(=O)[C@H](CC(=O)O)NC(=O)[C@H](CC(C)C)NC(=O)[C@@H](N)CC(=O)O)C(=O)N1CCC[C@H]1C(=O)N[C@@H](C)C(=O)N[C@@H](CC(=O)O)C(=O)N[C@@H](CC(=O)O)C(=O)N[C@@H](CC(=O)O)C(=O)N[C@@H](Cc1ccccc1)C(=O)N[C@@H](CCC(N)=O)C(=O)N[C@@H](CC(C)C)C(=O)N[C@@H](CCCNC(=N)N)C(N)=O | Active |
| CC[C@@H](C)[C@H](NC(=O)[C@H](Cc1ccc(O)cc1)NC(=O)[C@H](CC(C)C)NC(=O)[C@H](C)NC(=O)[C@H](CC(C)C)NC(=O)[C@H](C)NC(=O)[C@H](CCC(=O)O)NC(=O)[C@H](CC(C)C)NC(=O)[C@H](CC(=O)O)NC(=O)[C@H](CC(C)C)NC(=O)[C@@H](N)CC(=O)O)C(=O)N1CCC[C@H]1C(=O)N[C@@H](C)C(=O)N[C@@H](CC(=O)O)C(=O)N[C@@H](CC(=O)O)C(=O)N[C@@H](CC(=O)O)C(=O)N[C@@H](Cc1ccccc1)C(=O)N[C@@H](CCC(N)=O)C(=O)N[C@@H](CC(C)C)C(=O)N[C@@H](CCCNC(=N)N)C(N)=O | inactive |
| CC[C@@H](C)[C@H](NC(=O)[C@H](Cc1ccc(O)cc1)NC(=O)[C@@H]1C[C@@H](F)CN1C(=O)[C@H](C)NC(=O)[C@H](CC(C)C)NC(=O)[C@H](C)NC(=O)[C@H](CCC(=O)O)NC(=O)[C@H](CC(C)C)NC(=O)[C@H](CC(=O)O)NC(=O)[C@H](CC(C)C)NC(=O)[C@@H](N)CC(=O)O)C(=O)N1CCC[C@H]1C(=O)N[C@@H](C)C(=O)N[C@@H](CC(=O)O)C(=O)N[C@@H](CC(=O)O)C(=O)N[C@@H](CC(=O)O)C(=O)N[C@@H](Cc1ccccc1)C(=O)N[C@@H](CCC(N)=O)C(=O)N[C@@H](CC(C)C)C(=O)N[C@@H](CCCNC(=N)N)C(N)=O | Active |
| CC[C@@H](C)[C@H](NC(=O)[C@H](Cc1ccc(O)cc1)NC(=O)[C@H](CCO)NC(=O)[C@H](C)NC(=O)[C@H](CC(C)C)NC(=O)[C@H](C)NC(=O)[C@H](CCC(=O)O)NC(=O)[C@H](CC(C)C)NC(=O)[C@H](CC(=O)O)NC(=O)[C@H](CC(C)C)NC(=O)[C@@H](N)CC(=O)O)C(=O)N1CCC[C@H]1C(=O)N[C@@H](C)C(=O)N[C@@H](CC(=O)O)C(=O)N[C@@H](CC(=O)O)C(=O)N[C@@H](CC(=O)O)C(=O)N[C@@H](Cc1ccccc1)C(=O)N[C@@H](CCC(N)=O)C(=O)N[C@@H](CC(C)C)C(=O)N[C@@H](CCCNC(=N)N)C(N)=O | Active |
